Laboratory results: patent publication US20160115225A1, “Methods of Reducing Methylglyoxal (MGO) Modification of Recombinant Proteins in Cell Culture” (AbbVie Inc., priority 2014, published 2016)

Tested on: adalimumab producing cell line 1
Test: WCX-10 quantification of acidic species of adalimumab, bioreactor culture, cell line 1
Format: cell-based
Experimental: Two adalimumab producing cell lines were employed in the studies covered here. Upon thaw, cells were cultured in their respective growth media in a combination of vented non-baffled shake flasks (Corning) on a shaker platform at 110 RPM (cell line 1) and 140 RPM (cell line 2) and 10 L or 20 L wave bags (GE). Cultures were propagated in a 35° C., 5% CO2 incubator for cell line 1 and 36° C., 5% CO2 incubator for cell line 2 to obtain the required number of cells to be able to initiate production stage cultures. For the bioreactor (3 L Applikon) experiments (Examples 1, 2 and 3), 3 L, bioreactors (1.5 L working volume) were initiated at 35° C. (cell line 1) and 36° C. (cell line 2), 30% DO, 200 rpm, pH of 7.1. In some of the conditions, pH was ramped down to 6.8 in three days and kept at pH 6.8 thereafter. The inclusion of pH ramp for a particular condition is indicated by the final pH in the experimental design. If the final pH is 7.1, then it indicates no pH ramp was performed, whereas if the final pH is 6.8, a pH ramp was performed on day 3 from pH 7.1 to pH 6.8. In some of the conditions, a temperature shift was performed. When temperature shift was performed, the temperature was lowered to 33° C. Again, the conditions where such a temperature shift was performed can be identified from the final temperature in the experimental design. Cultures were run in extended batch mode with the addition of a desired amount of 40% glucose stock solution was fed based on glucose measurements. The harvest procedure of the reactors involved centrifugation of the culture sample at 3,000 RPM for 30 min and storage of supernatant in PETG bottles at −80° C. before submission for protein A purification, WCX-10 analysis and Lys-C peptide mapping. This method is employed towards the quantification of the acidic species and other charge variants present in cell culture harvest samples. Cation exchange chromatography was performed on a Dionex ProPac WCX-10, Analytical column (Dionex, Calif.). The mobile phases used were 10 mM Sodium Phosphate dibasic pH 7.5 (Mobile phase A) and 10 mM Sodium Phosphate dibasic, 500 mM Sodium Chloride pH 5.5 (Mobile phase B). A binary gradient (94% A, 6% B: […]; 84% A, 16% B: 20-22 min; 0% A, 100% B: 22-28 min; 94% A, 6% B: 28-34 min) was used with detection at 280 nm. Quantitation is based on the relative area percent of detected peaks. The peaks that elute at relative residence time earlier than the main peak corresponding to the drug product are together represented as the acidic peaks. Cell line 1 was cultured in IVGN production medium supplemented with or without 2DDG (0.25 g/l). Prior to this experiment, a study was performed in a shake flask culture to evaluate the dose effect of 2DDG on this cell line and optimize a dose range of reactor evaluation (data not shown). In this experiment, the cultures were performed in 3 L bioreactors in batch format (pH 7.1, DO—30%, 200 rpm) with only glucose feed as described in Example 1. Temperature shift was implemented in some tests (35° C. to 33° C. on day 5 of culture). Both 2DDG supplementation and temperature shift were employed as methods to reduce glucose consumption of the cells in culture. The hypothesis was that the reduction in glucose consumption will translate into reduced synthesis of MGO in cell culture. As a result, a reduction in MGO modification and acidic species of the protein would be achieved. In this experiment, the cultures were performed in 3 L bioreactors in batch format (DO—30%, 200 rpm) with only glucose feed as described in the materials and methods. The control condition was run at a constant temperature of 35° C., constant pH of 7.1 without any supplementation of 2DDG or arginine (condition #10). […]

O=CC[C@@H](O)[C@H](O)[C@H](O)CO [Test 2DDG, 2-Deoxy-D-Glucose]
percentage of acidic species (Example 2, 2DDG 0.25 g/l with temperature shift 35° C. to 33° C. on day 5, Day 10 harvest, control 26.6%): 17.4% | percentage of acidic species (Example 2, 2DDG 0.25 g/l, no temperature shift, Day 10 harvest, control 26.6%): 22.9% | percentage of acidic species (Example 3, 2DDG 0.25 g/l alone, day 11 harvest, control 68.4%): 48.5% | percentage of acidic species (Example 3, 2DDG 0.25 g/l and temperature shift, day 11 harvest, control 68.4%): 22.7% | percentage of acidic species (Example 3, 2DDG, temperature shift and arginine supplementation (4 g/l), day 11 harvest): 12.6% | percentage of acidic species (Example 3, 2DDG, temperature shift and lower pH (6.8), day 11 harvest): 15.2% | percentage of acidic species (Example 3, 2DDG, temperature shift, lower pH and arginine supplementation, day 11 harvest): 12.0%
